Drawing on patent US8008298B2, “Pyrrolopyrazine kinase inhibitors” (Roche Palo Alto, priority 2008, dated 2011), this text covers melting point for 28 compounds.

Structures are written as SMILES.

In the case of `COCOc1cc(-c2cnc3[nH]cc(C(=O)C(C)(C)C)c3n2)cc(N2CCCC2)c1` [Example I-151, 1-[2-(3-Methoxymethoxy-5-pyrrolidin-1-yl-phenyl)-5H-pyrrolo[2,3-b]pyrazin-7-yl]-2,2-dimethyl-propan-1-one], the melting point was in the range of 229 to 230 °C.

`CC(C)Oc1cc(-c2cnc3[nH]cc(C(=O)C(C)(C)C)c3n2)cc(N2CCCC2)c1` [Example I-152, 1-[2-(3-Isopropoxy-5-pyrrolidin-1-yl-phenyl)-5H-pyrrolo[2,3-b]pyrazin-7-yl]-2,2-dimethyl-propan-1-one]: the melting point lay in the range of 233 to 235 °C.

As for `COc1cc(-c2cnc3[nH]cc(C(=O)C4(C)CCCCC4)c3n2)cc(N2CCSCC2)c1` [Example I-155, [2-(3-Methoxy-5-thiomorpholin-4-yl-phenyl)-5H-pyrrolo[2,3-b]pyrazin-7-yl]-(1-methyl-cyclohexyl)-methanone], the melting point was in the range of 212 to 214 °C.

With `CC(C)(C)C(=O)c1c[nH]c2ncc(-c3cccc(N4CCC5(CCSC5)C4)c3)nc12` (stereo not shown) [Example I-168, 2,2-Dimethyl-1-{2-[3-(2-thia-7-aza-spiro[4.4]non-7-yl)-phenyl]-5H-pyrrolo[2,3-b]pyrazin-7-yl}-propan-1-one], the melting point was in the range of 239 to 241 °C.

`COc1ccc(COc2cccc(-c3cnc4[nH]cc(C(=O)NC(C)C)c4n3)c2)cc1` [Example I-229, 2-[3-(4-Methoxy-benzyloxy)-phenyl]-5H-pyrrolo[2,3-b]pyrazine-7-carboxylic acid isopropylamide]: the melting point was 215 to 216 °C.

In the case of `COCC1CCCN1c1cccc(-c2cnc3[nH]cc(C(=O)NC(C)C)c3n2)c1` (stereo not shown) [Example I-230, 2-[3-(2-Methoxymethyl-pyrrolidin-1-yl)-phenyl]-5H-pyrrolo[2,3-b]pyrazine-7-carboxylic acid isopropylamide], the melting point lay within 187 to 190 °C.

For `Cc1nnc(-c2cccc(-c3cnc4[nH]cc(C(=O)C(C)(C)C)c4n3)c2)o1` [Example I-325, 2,2-Dimethyl-1-{2-[3-(5-methyl-[1,3,4]oxadiazol-2-yl)-phenyl]-5H-pyrrolo[2,3-b]pyrazin-7-yl}-propan-1-one], the melting point is 260.9 to 264.4 °C.

For the compound `Cc1cc(-c2cnc3[nH]cc(C(=O)C(C)(C)C)c3n2)cc(C(C)(C)C)c1` [Example I-334, 1-[2-(3-tert-Butyl-5-methyl-phenyl)-5H-pyrrolo[2,3-b]pyrazin-7-yl]-2,2-dimethyl-propan-1-one], the melting point was 234.9 to 236.1 °C.

In turn, `CC(C)(C)C(=O)c1c[nH]c2ncc(-c3cccc(-c4ccccc4)c3)nc12` [Example I-335, 1-(2-Biphenyl-3-yl-5H-pyrrolo[2,3-b]pyrazin-7-yl)-2,2-dimethyl-propan-1-one] yielded a melting point of 219.9 to 221.1 °C.

In turn, `CC(C)(C)OCc1cccc(-c2cnc3[nH]cc(C(=O)C(C)(C)C)c3n2)c1` [Example I-336, 1-[2-(3-tert-Butoxymethyl-phenyl)-5H-pyrrolo[2,3-b]pyrazin-7-yl]-2,2-dimethyl-propan-1-one] returned a melting point of 202 to 203 °C.

In the case of `CC(C)c1cccc(-c2cnc3[nH]cc(C(=O)C(C)(C)C)c3n2)c1` [Example I-337, 1-[2-(3-Isopropyl-phenyl)-5H-pyrrolo[2,3-b]pyrazin-7-yl]-2,2-dimethyl-propan-1-one], the melting point was 197 to 198 °C.

`CC(C)(C)C(=O)c1c[nH]c2ncc(-c3ccc(F)c(Cl)c3)nc12` [Example I-341, 1-[2-(3-Chloro-4-fluoro-phenyl)-5H-pyrrolo[2,3-b]pyrazin-7-yl]-2,2-dimethyl-propan-1-one] had a melting point of 233 to 234 °C.

The compound `CC(C)(C)C(=O)c1c[nH]c2ncc(-c3cccc(-c4cnc[nH]4)c3)nc12` [Example I-346, 1-{2-[3-(3H-Imidazol-4-yl)-phenyl]-5H-pyrrolo[2,3-b]pyrazin-7-yl}-2,2-dimethyl-propan-1-one] gave a melting point of 287 to 288 °C.

Compound `CC(C)(C)C(=O)c1c[nH]c2ncc(-c3cccc(C4=CCCCC4)c3)nc12` [Example I-352, 1-[2-(3-Cyclohex-1-enyl-phenyl)-5H-pyrrolo[2,3-b]pyrazin-7-yl]-2,2-dimethyl-propan-1-one] returned a melting point of 188 to 190 °C.

As for `CC(C)(C)C(=O)c1c[nH]c2ncc(-c3ccc(-c4ccccc4)cc3)nc12` [Example I-355, 1-(2-Biphenyl-4-yl-5H-pyrrolo[2,3-b]pyrazin-7-yl)-2,2-dimethyl-propan-1-one], the melting point fell in the range of 275 to 277 °C.

For the compound `Cc1nnc(-c2ccc(-c3cnc4[nH]cc(C(=O)C(C)(C)C)c4n3)cc2)o1` [Example I-357, 2,2-Dimethyl-1-{2-[4-(5-methyl-[1,3,4]oxadiazol-2-yl)-phenyl]-5H-pyrrolo[2,3-b]pyrazin-7-yl}-propan-1-one], the melting point is > 300 °C.

As for `CC(C)(C)C(=O)c1c[nH]c2ncc(-c3ccc(OCCN4CCCCC4)cc3)nc12` [Example I-363, 2,2-Dimethyl-1-{2-[4-(2-piperidin-1-yl-ethoxy)-phenyl]-5H-pyrrolo[2,3-b]pyrazin-7-yl}-propan-1-one], the melting point fell in the range of 207 to 208 °C.

Compound `CCNC(=O)c1cccc(-c2cnc3[nH]cc(C(=O)C(C)(C)C)c3n2)c1` [Example I-365, 3-[7-(2,2-Dimethyl-propionyl)-5H-pyrrolo[2,3-b]pyrazin-2-yl]-N-ethyl-benzamide] yielded a melting point of 232 to 233 °C.

On to `CC1(C(=O)c2c[nH]c3ncc(-c4ccc(OCCN5CCCCC5)cc4)nc23)CCCCC1` [Example I-368, (1-Methyl-cyclohexyl)-{2-[4-(2-piperidin-1-yl-ethoxy)-phenyl]-5H-pyrrolo[2,3-b]pyrazin-7-yl}-methanone], for which the melting point fell in the range of 180 to 182 °C.

On to `CC(C)(C)C(=O)c1c[nH]c2ncc(-c3cccc(-c4cn[nH]c4)c3)nc12` [Example I-369, 2,2-Dimethyl-1-{2-[3-(1H-pyrazol-4-yl)-phenyl]-5H-pyrrolo[2,3-b]pyrazin-7-yl}-propan-1-one], for which the melting point is > 300 °C.

Consider `COc1cc(-c2cnc3[nH]cc(C(=O)N4CCC(C)(C)C4)c3n2)cc(OC)c1OC` [Example I-395, (3,3-Dimethyl-pyrrolidin-1-yl)-[2-(3,4,5-trimethoxy-phenyl)-5H-pyrrolo[2,3-b]pyrazin-7-yl]-methanone], for which the melting point lay within 228 to 230 °C.

In the case of `CC(C)(C)C(=O)c1c[nH]c2ncc(-c3cccc(N4CCC(O)C4)c3)nc12` (stereo not shown) [Example I-402, 1-{2-[3-(3-Hydroxy-pyrrolidin-1-yl)-phenyl]-5H-pyrrolo[2,3-b]pyrazin-7-yl}-2,2-dimethyl-propan-1-one], the melting point fell in the range of 245 to 248 °C.

With `CC(C)(C)C(=O)c1c[nH]c2ncc(-c3cccc(NCCS(C)(=O)=O)c3)nc12` [Example I-407, 1-{2-[3-(2-Methanesulfonyl-ethylamino)-phenyl]-5H-pyrrolo[2,3-b]pyrazin-7-yl}-2,2-dimethyl-propan-1-one], the melting point was in the range of 205 to 206 °C.

`CC(=O)Nc1ccc(S(=O)(=O)Nc2cccc(-c3cnc4[nH]cc(C(=O)C(C)(C)C)c4n3)c2)cc1` [Example I-412, N-(4-{3-[7-(2,2-Dimethyl-propionyl)-5H-pyrrolo[2,3-b]pyrazin-2-yl]-phenylsulfamoyl}-phenyl)-acetamide] had a melting point of 226 to 228 °C.

For `CC(=O)Nc1ccc(S(=O)(=O)Nc2cc(-c3cnc4[nH]cc(C(=O)C(C)(C)C)c4n3)ccc2C)cc1` [Example I-415, N-(4-{5-[7-(2,2-Dimethyl-propionyl)-5H-pyrrolo[2,3-b]pyrazin-2-yl]-2-methyl-phenylsulfamoyl}-phenyl)-acetamide], the melting point is 274 to 276 °C.

With `Cc1ccc(-c2cnc3[nH]cc(C(=O)C(C)(C)C)c3n2)cc1NS(=O)(=O)c1ccc(N)cc1` [Example I-416, 4-Amino-N-{5-[7-(2,2-dimethyl-propionyl)-5H-pyrrolo[2,3-b]pyrazin-2-yl]-2-methyl-phenyl}-benzenesulfonamide], the melting point was in the range of 264 to 266 °C.

The compound `CC1(O)CCN(c2cccc(-c3cnc4[nH]cc(C(=O)C(C)(C)C)c4n3)c2)C1` (stereo not shown) [Example I-417, 1-{2-[3-(3-Hydroxy-3-methyl-pyrrolidin-1-yl)-phenyl]-5H-pyrrolo[2,3-b]pyrazin-7-yl}-2,2-dimethyl-propan-1-one] returned a melting point of 237 to 239 °C.

As to `COc1cc(-c2cnc3[nH]cc(C(=O)O)c3n2)cc(OC)c1OC` [Example I-490, 2-(3,4,5-Trimethoxy-phenyl)-5H-pyrrolo[2,3-b]pyrazine-7-carboxylic acid], the melting point is 237.8 to 238.4 °C.
